Reference: patent publication US6251894A, “1-(1,2-disubstituted piperidinyl)-4 (fused imidazole)-piperidine derivatives” (Janssen Pharmaceuticals N.V., priority 1995, dated 2001)
Read-outs that look alike come from different tables or passages of the source.

Key:
[1] = system: Substance P Induced Relaxation of the Pig Coronary Arteries; test: Antagonism of substance P induced relaxation of the pig coronary arteries; conditions: 30 min incubation
Method: Antagonism of Substance P Induced Relaxation of the Pig Coronary Arteries
Segments of coronary arteries taken from pigs (killed by injection of an overdose of sodium pentobarbital) were inverted and mounted for recording of isometric tension in organ baths (volume 20 ml) with the endothelium at the outside. The preparations were bathed in Krebs-Henseleit solution. The solution was kept at 37° C. and gassed with a mixture of O2 /CO2 (95/5). After stabilisation of the preparations, prostaglandin F2α (10^-5 M) was administered to induce a contraction. This was repeated until contractile responses became stable. Then prostaglandin F2α was again administered and substance P (3×10^-10 M and 10^-9 M cumulatively) was added. Substance P induced endothelium dependent relaxations. After washing away the agonists, a known concentration of a compound of formula (I) was added. After an incubation period of 30 minutes, prostaglandin F2α (10^-5 M) and the same concentrations of substance P as described above were again administered in the presence of the compound to be tested.

[2] = system: Substance P Induced Plasma Extravasation; test: Antagonism of substance P induced plasma extravasation in guinea-pigs; assay type: in vivo, guinea-pig; conditions: Cavia porcellus, 1 hour prior to substance P
Method: Antagonism of Substance P Induced Plasma Extravasation in Guinea-pigs
Plasma travasation was induced by injection of substance P (2 mg/kg) in the femoral artery of female guinea-pigs. Evans Blue dye (30 mg/kg) was injected simultaneously. The test compound or solvent was administered subcutaneous (s.c.) or orally (p.o.) 1 hour prior to substance P injection. 10 minutes after challenge, the animals were checked for blue colouring (a direct measure for plasma extravasation) of the nose, the forepaws, and the conjunctiva. 30 minutes after challenge, the animals were sacrificed by CO2 gas inhalation and checked for blue colouring of the trachea and the urinary bladder. […]

[3] = test compound concentration 3 × 10^-8 (unit not given)
[4] = sc, 10 min, s.c., conjunctiva, read-out: lowest active dose (LAD), conjunctiva
[5] = sc, 10 min, s.c., forepaws, read-out: lowest active dose (LAD), forepaws
[6] = sc, 10 min, s.c., nose, read-out: lowest active dose (LAD), nose
[7] = sc, 0.5 h, s.c., trachea, read-out: lowest active dose (LAD), trachea
[8] = sc, 0.5 h, s.c., urinary bladder, read-out: lowest active dose (LAD), urinary bladder
[9] = test compound concentration 3 × 10^-9 (unit not given)
[10] = po, 10 min, p.o., conjunctiva, read-out: lowest active dose (LAD), conjunctiva
[11] = po, 10 min, p.o., forepaws, read-out: lowest active dose (LAD), forepaws
[12] = po, 10 min, p.o., nose, read-out: lowest active dose (LAD), nose
[13] = po, 0.5 h, p.o., trachea, read-out: lowest active dose (LAD), trachea
[14] = po, 0.5 h, p.o., urinary bladder, read-out: lowest active dose (LAD), urinary bladder

Row | Compound | % inhibition of the response to 10^-9 M substance P [1, 3] [%] | minimal effective dose [2, 4] [mg/kg] | minimal effective dose [2, 5] [mg/kg] | minimal effective dose [2, 6] [mg/kg] | minimal effective dose [2, 7] [mg/kg] | minimal effective dose [2, 8] [mg/kg] | % inhibition of the response to 10^-9 M substance P [1, 9] [%] | minimal effective dose [2, 10] [mg/kg] | minimal effective dose [2, 11] [mg/kg] | minimal effective dose [2, 12] [mg/kg] | minimal effective dose [2, 13] [mg/kg] | minimal effective dose [2, 14] [mg/kg]
1 | Cn1ccc2c1CCn1ccnc1C2=C1CCN([C@@H]2CCN(C(=O)c3cc(C(F)(F)F)cc(C(F)(F)F)c3)[C@@H](Cc3ccccc3)C2)CC1 (racemic) [Compound 2, (±)-trans-1-[3,5-bis(trifluoromethyl)benzoyl]-4-[4-(5,6,7,10-tetrahydro-7-methylimidazo[1,2-a]pyrrolo[3,2-d]azepin-10-ylidene)-1-piperidinyl]-2-(phenylmethyl)piperidine] | 96.5 | 0.16 | 0.16 | 0.16 | 2.5 | 2.5 | – | – | – | – | – | –
2 | Cn1ccc2c1CCn1ccnc1C2=C1CCN([C@H]2CCN(C(=O)c3cc(C(F)(F)F)cc(C(F)(F)F)c3)[C@@H](Cc3ccccc3)C2)CC1 (racemic) [Compound 3, (±)-cis-1-[3,5-bis(trifluoromethyl)benzoyl]-4-[4-(5,6,7,10-tetrahydro-7-methylimidazo[1,2-a]-pyrrolo[3,2-d]azepin-10-ylidene)-1-piperidinyl]-2-(phenylmethyl)piperidine] | – | 2.5 | 2.5 | 2.5 | 10 | 10 | 37.3 | – | – | – | – | –
3 | O=C(c1cc(C(F)(F)F)cc(C(F)(F)F)c1)N1CC[C@H](N2CCC(=C3c4ccccc4CCn4c(CO)cnc43)CC2)C[C@@H]1Cc1ccccc1 (racemic) [Compound 4, (±)-cis-1-[3,5-bis(trifluoromethyl)benzoyl]-4-[4-[5,6-dihydro-3-(hydroxymethyl)-11H-imidazo[2,1-b][3]benzazepin-11-ylidene]-1-piperidinyl]-2-(phenylmethyl)piperidine] | 97.0 | 10 | 10 | 10 | 10 | 10 | – | – | – | – | – | –
4 | O=Cc1cnc2n1CCc1ccccc1C2=C1CCN([C@H]2CCN(C(=O)c3cc(C(F)(F)F)cc(C(F)(F)F)c3)[C@@H](Cc3ccccc3)C2)CC1 (racemic) [Compound 11, (±)-cis-1-[3,5-bis(trifluoromethyl)benzoyl]-4-[4-(3-formyl-5,6-dihydro-11H-imidazo[2,1-b][3]benzazepin-11-ylidene)-1-piperidinyl]-2-(phenylmethyl)piperidine] | – | – | – | – | – | – | 96.1 | 10 | 10 | 10 | 10 | 10
5 | COC(=O)c1cnc2n1CCc1ccccc1C2=C1CCN([C@H]2CCN(C(=O)c3cc(C(F)(F)F)cc(C(F)(F)F)c3)[C@@H](Cc3ccccc3)C2)CC1 (racemic) [Compound 17, (±)-methyl cis-11-[1-[1-[3,5-bis(trifluoromethyl)benzoyl]-2-(phenylmethyl)-4-piperidinyl]-4-piperidinylidene]-6,11-dihydro-5H-imidazo[2,1-b][3]benzazepine-3-carboxylate] | – | – | – | – | – | – | 35.3 | 10 | 10 | 10 | 10 | 10
6 | O=C(c1cc(C(F)(F)F)cc(C(F)(F)F)c1)N1CC[C@@H](N2CCC(=C3c4ccccc4CCn4c(CO)cnc43)CC2)C[C@@H]1Cc1ccccc1 (relative stereo) [Compound 5] | – | – | – | – | – | – | 100.0 | 2.5 | 2.5 | 2.5 | 10 | 10
7 | O=C(c1cc(C(F)(F)F)cc(C(F)(F)F)c1)N1CC[C@@H](N2CCC(=C3c4sccc4CCn4ccnc43)CC2)C[C@@H]1Cc1ccccc1 (relative stereo) [Compound 7] | – | 2.5 | 10 | 2.5 | 10 | 10 | 83.1 | – | – | – | – | –
8 | O=Cc1cnc2n1CCc1ccccc1C2=C1CCN([C@@H]2CCN(C(=O)c3cc(C(F)(F)F)cc(C(F)(F)F)c3)[C@@H](Cc3ccccc3)C2)CC1 (relative stereo) [Compound 16] | – | 2.5 | 2.5 | 2.5 | 10 | 10 | 98.9 | – | – | – | – | –
9 | O=C(c1cc(C(F)(F)F)cc(C(F)(F)F)c1)N1CC[C@@H](N2CCC(=C3c4ccsc4CCn4ccnc43)CC2)C[C@H]1Cc1ccccc1 (relative stereo) [Compound 18] | – | 2.5 | 10 | 10 | 10 | 10 | 39.8 | – | – | – | – | –
10 | O=C(c1cc(C(F)(F)F)cc(C(F)(F)F)c1)N1CC[C@@H](N2CCC(=C3c4ccsc4CCn4ccnc43)CC2)C[C@@H]1Cc1ccccc1 (relative stereo) [Compound 19] | – | 2.5 | 2.5 | 2.5 | 2.5 | 10 | 78.1 | – | – | – | – | –
11 | Cc1cc(C)cc(C(=O)N2CC[C@@H](N3CCC(=C4c5ccccc5CCn5c(CO)cnc54)CC3)C[C@@H]2Cc2ccccc2)c1 (relative stereo) [Compound 20] | – | 2.5 | 2.5 | 2.5 | 2.5 | 2.5 | 9.5 | – | – | – | – | –
12 | O=C(c1cc(C(F)(F)F)cc(C(F)(F)F)c1)N1CC[C@@H](N2CCC(=C3c4ccccc4CCn4ccnc43)CC2)C[C@@H]1Cc1ccccc1 (relative stereo) [Compound 22] | – | 10 | 10 | 10 | 10 | 10 | 83.2 | – | – | – | – | –
13 | Cc1cc(C)cc(C(=O)N2CC[C@@H](N3CCC(=C4c5ccccc5CCn5c(C=O)cnc54)CC3)C[C@@H]2Cc2ccccc2)c1 (relative stereo) [Compound 25] | – | 2.5 | 2.5 | 2.5 | 10 | 10 | 100.0 | – | – | – | – | –
14 | Cc1cc(C)cc(C(=O)N2CC[C@@H](N3CCC(=C4c5ccn(C)c5CCn5ccnc54)CC3)C[C@@H]2Cc2ccccc2)c1 (relative stereo) [Compound 34] | – | 2.5 | 0.63 | 0.63 | 0.63 | 0.63 | 43.5 | – | – | – | – | –
15 | Cc1cc(C)cc(C(=O)N2CC[C@@H](N3CCC(=C4c5sccc5CCn5ccnc54)CC3)C[C@H]2Cc2ccccc2)c1 (relative stereo) [Compound 35] | – | 10 | 10 | 10 | 10 | 10 | 27.7 | – | – | – | – | –
16 | Cc1cc(C)cc(C(=O)N2CC[C@H](N3CCC(=C4c5sccc5CCn5ccnc54)CC3)C[C@H]2Cc2ccccc2)c1 (relative stereo) [Compound 37] | – | 2.5 | 2.5 | 2.5 | 10 | 10 | 81.9 | – | – | – | – | –
17 | Cc1cc(C)cc(C(=O)N2CC[C@H](N3CCC(=C4c5ccsc5CCn5ccnc54)CC3)C[C@H]2Cc2ccccc2)c1 (relative stereo) [Compound 39] | – | 2.5 | 2.5 | 2.5 | 10 | 10 | 42.9 | – | – | – | – | –
18 | Cc1cc(C)cc(C(=O)N2CC[C@H](N3CCC(=C4c5ccccc5CCn5ccnc54)CC3)C[C@H]2Cc2ccccc2)c1 (relative stereo) [Compound 41] | – | 2.5 | 10 | 10 | 10 | 10 | 40.6 | – | – | – | – | –
